Legend:
Primary DRG cells [1] = test: Neurite outgrowth assay (group A), paclitaxel-induced neurotoxicity; format: cell-based, C57BL/6 J mice; details: for neuroprotection against paclitaxel-induced neurotoxicity: 1 µM compound, 0.05 µM paclitaxel; for activity at 1 µM: Mus musculus, DRG cells, 1 µM compound 24 h then 0.05 µM paclitaxel 24 h, % of untreated control, read-out: Neurite outgrowth (%); for Neurite outgrowth (%) A-B (extent of protection): difference between compound 1 µM + paclitaxel 0.05 µM and paclitaxel 0.05 µM alone
Experimental: Compounds of this invention were evaluated using the neurite outgrowth assay as described in Chen et al., Scientific Reports, 7, 45366, DOI: 10.1038/srep45366 (2017).
(§1) Cell culture. For primary culture, dorsal root ganglia (“DRG”) were removed from 7-weeks-old C57BL/6 J mice and digested with 0.1% collagenase (Sigma-Aldrich, St. Louis, MO) for 1 hour, followed by 0.25% trypsin treatment for 25 minutes. The dissociated neuron cultures were plated at a density of 2.5×10^4 cells per well in a 96 well optics plates (CLS3614; Sigma-Aldrich) precoated with 1 mg/mL poly-D-lysine (A-003-M; Sigma-Aldrich) for 3 hours. Primary DRG cells were grown in DMEM-F12 (11320033; Gibco®, ThermoFisher Scientific, Waltham, MA) supplemented with 10% fetal bovine serum (FBS, 26140079; Gibco®, ThermoFisher). These cells were maintained at 37° C. in an environment containing 5% CO2.
(§2) Neurite outgrowth assay (group A). Primary DRG cells were incubated with one of the Example 2 compounds at 1 µM for 24 hours, and then treated with 0.05 µM paclitaxel for another 24 hours. After the paclitaxel treatment, the primary DRG cells were washed by PBS and then fixed with 4% paraformaldehyde (PFA, P6148; Sigma-Aldrich) for 15 minutes. The DRG cells thus fixed were permeabilized by 0.05% Triton X-100 in PBS for 20 minutes and blocked with 3% bovine serum albumin (BSA; Sigma-Aldrich, USA) at room temperature for 1 hour. Subsequently, DRG cells were stained with rabbit anti-β III tubulin (1:600; Cell Signaling, USA) and mouse anti-NeuN monoclonal antibody (1:400; Millipore, USA) overnight at 4° C. The samples were then washed by PBS and reacted with secondary antibodies (Alexa-488 and Alexa-594 1:600; Invitrogen, CA) at room temperature for 1 hour. For image acquisition and analysis of DRG neurite outgrowth, images of stained cells were automatically acquired using 10X objective by Image Xpress Micro wide field fluorescent microscope (Molecular Devices, USA). A control was obtained following the same procedure except that the DRG cells were not treated with a compound or paclitaxel. Neurite outgrowth was measured as a percentage of outgrowth as compared to the control.
The difference between A and B indicates an extent of protection provided by the compound.

Primary DRG cells [2] = test: Neurite outgrowth assay (group B), oxaliplatin-induced neurotoxicity; format: cell-based, C57BL/6 J mice; details: for Neurite outgrowth (%): % of untreated control; for Neurite outgrowth (%) A-B: difference between compound 1 µM + oxaliplatin 100 µM and oxaliplatin 100 µM alone; for neuroprotection against oxaliplatin-induced neurotoxicity: 1 µM compound
Experimental: as §1, §2
Neurite outgrowth assay (group B). Primary DRG cells were incubated with compounds 17, 47, 97, 98, 101, 104 at 1 µM for 24 hours, and then treated with 100 µM oxaliplatin for another 48 hours. The treatment was obtained following the same procedure as group A except that the DRG cells were treated with a oxaliplatin. Neurite outgrowth was measured as a percentage of outgrowth as compared to the control.

[3] = system: paclitaxel-induced neuropathy; details: 5 mg/kg i.p. one hour before paclitaxel 4.5 mg/kg i.p., days 0, 2, 4, 6
Experimental: Compound 47 was used in an in vivo mouse behavioral study for treating paclitaxel-induced neuropathy following a procedure described in Chen et al., Scientific Reports, 7, 45366, DOI: 10.1038/srep45366 (2017).
After housing adaptions, 7-weeks-old C57BL/6J female mice (weight range: 18-20 g) were treated as follows. Paclitaxel (4.5 mg/kg, Bristol-Myers Squibb, New York, New York), vehicle (saline), or Compound 47 (5, 10 or 20 mg/kg) was injected intraperitoneally on four alternative days (days 0, 2, 4, and 6). Two behavior tests were performed: (1) mechanical hyperalgesia was evaluated using a von Frey filament (Part #2390, IITC Inc., CA) and (2) thermal sensitivity was studied using a tail immersion assay (water temperature: 48-49° C.). See Chen et al., Mol. Cancer. Ther. 14, 2206-14 (2015). The baseline measurement of each behavior test was established prior to treatments. Five sessions were measured weekly.
The neuroprotective effects of Compound 47 in a mouse model was measured following a protocol with predetermined drug administration and behavioral tests. The basal levels of each behavioral assay were obtained prior to the treatment. […]
A von Frey filament test was performed to detect allodynia. […] Thermal sensation was assessed using a tail immersion test by checking tail withdrawal latency. […]

[4] = DRG cells, 1 µM compound 24 h then 100 µM oxaliplatin 48 h

| SMILES | neuroprotection against paclitaxel-induced neurotoxicity (Primary DRG cells [1]) | activity at 1 µM (Primary DRG cells [1]) [%] | Neurite outgrowth (%) A-B (extent of protection) (Primary DRG cells [1]) [%] | Neurite outgrowth (%) (Primary DRG cells [2]; [4]) | Neurite outgrowth (%) A-B (Primary DRG cells [2]) [%] | improvement of neurite outgrowth (Primary DRG cells [1]; 1 µM compound vs 0.05 µM paclitaxel treated cells) | improvement of neurite outgrowth (Primary DRG cells [2]; 1 µM compound vs 100 µM oxaliplatin treated cells) | neuroprotection against oxaliplatin-induced neurotoxicity (Primary DRG cells [2]; 100 µM oxaliplatin) | pain threshold (von Frey) [3] | neurotoxicity to DRG neurite outgrowth (Primary DRG cells [2]; 100 µM oxaliplatin 48 h) | inhibition of DRG neurite outgrowth (Primary DRG cells [2]; 100 µM oxaliplatin, across experiments of Table 2) | Neurite outgrowth (%) (Primary DRG cells [2]; DRG cells treated with 100 µM oxaliplatin only, comparator of the compound in the same table row) |
| --- | --- | --- | --- | --- | --- | --- | --- | --- | --- | --- | --- | --- |
| CC(C)NCCCn1cc(CNc2nc(NC3CCN(Cc4ccccc4)CC3)cc(N3CCOCC3)n2)nn1 [Compound 17] | neuroprotection was provided | 50 | 3 | 26 | -3 | – | – | – | – | – | – | – |
| O=P(O)(O)CCN1CCC(Nc2cc(N3CCOCC3)nc(NCc3cn(CCCO)nn3)n2)CC1 [Compound 47] | neuroprotection was provided | 65 | 18 | 47 | 7 | more than 18% | more than 7% | neuroprotection was provided | provided protection | – | – | – |
| CCn1nnnc1CNc1nc(N2CCOCC2)cc(N2CCOCC2)n1 [Compound 97] | neuroprotection was provided | 45 | 5 | 31 | 2 | – | – | neuroprotection was provided | – | – | – | – |
| CCn1nnc(CNc2nc(N3CCOCC3)cc(N3CCOCC3)n2)n1 [Compound 98] | neuroprotection was provided | 45 | 5 | 26 | -3 | – | – | – | – | – | – | – |
| CCn1nnc(CNc2nc(NC3CCN(CCC(=O)O)CC3)cc(N3CCOCC3)n2)n1 [Compound 101] | neuroprotection was provided | 53 | 6 | 31 | 2 | – | – | neuroprotection was provided | – | – | – | – |
| OCCCc1cc(CNc2nc(NC3CCNCC3)cc(N3CCOCC3)n2)no1 [Compound 104] | neuroprotection was provided | 45 | 5 | 34 | 5 | – | – | neuroprotection was provided | – | – | – | – |
| O=C1[O][Pt]2([NH][C@@H]3CCCC[C@H]3[NH]2)[O]C1=O [oxaliplatin, reference compound] | – | – | – | – | – | – | – | – | – | inhibiting neurite outgrowth | 60%-71 | 29 |

Reference: patent publication US20230085362A1, “PYRIMIDINE COMPOUNDS AND USE THEREOF” (National Health Research Institutes, priority 2021, published 2023)
